Source: patent US20240131032A1, “AN ACTIVITY-GUIDED MAP OF ELECTROPHILE-CYSTEINE INTERACTIONS IN PRIMARY HUMAN IMMUNE CELLS” (The Scripps Research Institute, priority 2019, published 2024)

Legend:
primary human T cells [1] = experiment: T cell viability by flow cytometry (near-IR LIVE/DEAD stain); assay type: cell-based; details: concentration-dependent profiles, at <20 μM
Description: FIG. 4A-4D is an overview of a multidimensional screen to identify elaborated electrophilic compounds that suppress T cell activation. FIG. 4A is a workflow for T-cell activation screen. Primary human T cells were treated with a focused library of elaborated electrophilic compounds (10 μM, structures of compounds in FIG. 12), a positive control immunosuppressive compound (DMF, 50 μM), or DMSO under TCR-stimulating conditions in 96-well plates pre-coated with 5 μg/mL αCD3 and 2 μg/mL αCD28 for 24 h. T cell activation was measured using a combination of markers, including IL2 and IFNγ secretion, as well as surface expression of CD25 and CD69. T cell viability was measured by flow cytometry using a Fixable Near-IR LIVE/DEAD™ Cell Stain. Compounds were considered as active hits if they reduced IL2 cytokine production by >65% with <15% reduction in T cell viability in the cytotoxicity assay compared to DMSO control. […] FIG. 4C are structures of active hit compounds selected for follow-up studies, including two acrylamides (BPK-21, BPK-25), two chloroacetamides (EV-3, EV-93) and DMF as a positive control. FIG. 4D are line graphs showing T cell activation and cytotoxicity profiles for selected hit compounds.
Non-tissue culture treated 96-well plates were pre-coated with αCD3 (5 μg/mL) and αCD28 antibodies (2 μg/mL) in PBS (100 μL/well) and left at 4° C. overnight. Freshly isolated T cells were re-suspended in RPMI media supplemented with 10% FBS, L-glutamine (2 mM), penicillin (100 U/mL), and streptomycin ([…]) at 2×10^6 cells/mL. Compound stocks (200×) in DMSO were diluted to 2× stocks in the working RPMI media in another 96-well plate. The pre-coated 96-well treatment plates were washed with PBS ([…]), T cells (100 μL/well, 2×10^5 cells/well) were then added to the wells, followed by the addition of 2× compound stocks in RPMI media (100 μL). The outer wells of the plates were filled with media without cells to avoid the edge effect in the assay. The treatment was done overnight (24 h) at 37° C. in a 5% CO2 containing incubator. Following the treatment, the cells were transferred to a U-bottom 96-well plate and harvested by centrifugation (600 g, 3 min, 4° C.). The supernatants were kept and stored at −80° C. for further cytokine analysis, while the cells were washed with PBS (2×150 μL) prior to staining for flow cytometry analysis.
Following the PBS washes, the cells were stained with fixable near-IR LIVE/DEAD cell stain (Invitrogen) according to manufacturer's instructions. Briefly, one vial of near-IR LIVE/DEAD dye was resuspended in DMSO (50 μL) and diluted with PBS (1:1000). The diluted stain was added to each well (200 μL) and the cells were incubated for 30 min at room temperature in the dark. After this time, the cells were pelleted (600 g, 3 min, 4° C.), washed once with PBS (200 μL/well) and incubated with a freshly made cocktail of antibodies for the appropriate cell surface markers diluted in PBS containing 2% FBS (1:400 antibody dilution).

MYD88 = molecular target: T1, MYD88 (Homo sapiens, UniProt Q99836); experiment: isoTOP-ABPP and TMT-ABPP cysteine engagement, MYD88; assay type: binding; details: scout fragments
T1 construct: endogenous in cells
T1 sequence (Q99836 whole entry, the tested form may be a part): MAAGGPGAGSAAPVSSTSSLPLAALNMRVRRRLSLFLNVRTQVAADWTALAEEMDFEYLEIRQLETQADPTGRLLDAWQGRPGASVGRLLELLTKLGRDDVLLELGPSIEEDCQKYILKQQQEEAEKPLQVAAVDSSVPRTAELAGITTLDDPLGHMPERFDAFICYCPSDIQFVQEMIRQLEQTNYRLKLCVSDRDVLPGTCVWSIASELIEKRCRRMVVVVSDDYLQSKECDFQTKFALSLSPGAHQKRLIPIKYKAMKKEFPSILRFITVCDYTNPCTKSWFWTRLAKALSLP
Description: Activated or expanded T cells were re-suspended in RPMI media supplemented with 10% FBS, L-glutamine (2 mM), penicillin (100 U/mL), and streptomycin (100 μg/mL) at 2×10^6 cells/mL. The compounds were added to cells as 1000×DMSO stocks and mixed well with the media by pipetting up and down after addition. The cells were kept at 37° C. in 5% CO2 containing incubators for 3 h (or otherwise specified times), then pelleted by centrifugation (524 g, 5 min, 4° C.), washed with cold PBS (10 mL) and transferred to Eppendorf tubes (1 mL PBS). The cells were pelleted again (524 g, 5 min, 4° C.), flash-frozen, and kept at −80° C. until further analysis.
Activated or expanded primary human T cells were re-suspended in RPMI (1×10^6 cells/mL) containing 10% fetal bovine serum (FBS), penicillin (100 U/mL), streptomycin ([…]), and L-glutamine (2 mM). The cells were treated with DMSO or compounds for 3 h, pelleted (524 g, 5 min), washed with PBS, and lysed by sonication (2×8 pulses). Soluble and particulate proteomic fractions were separated by ultracentrifugation (100,000 g, 45 min), and protein concentration was normalized to 1.7 mg/mL using a standard DC protein assay (Bio-Rad). The resulting proteomes were analyzed by competitive isotopic Tandem Orthogonal Proteolysis Activity-Based Protein Profiling (isoTOP-ABPP). […]
The heavy/light isoTOP-ABPP ratios (R values) for each unique peptide (DMSO/compound treated) were quantified with in-house CIMAGE software (Weerapana et al., 2010) using default parameters (3 MS1 acquisitions per peak and signal to noise threshold set to 2.5). Site-specific engagement of cysteine residues was assessed by blockade of IA-alkyne probe labeling. […] Ratios for unique peptide sequences were calculated for each experiment; overlapping peptides with the same modified cysteine (e.g., different charge states, elution times or tryptic termini) were grouped together and the median ratio was reported as the final ratio (R). […]

PDCD1 = molecular target: T2, PDCD1 (Homo sapiens, UniProt Q15116); experiment: TMT-ABPP scout fragment sensitivity, PDCD1; assay type: binding; details: activated T cells; 500 μM, 1 h
T2 construct: endogenous in cells
T2 sequence (Q15116 25-288): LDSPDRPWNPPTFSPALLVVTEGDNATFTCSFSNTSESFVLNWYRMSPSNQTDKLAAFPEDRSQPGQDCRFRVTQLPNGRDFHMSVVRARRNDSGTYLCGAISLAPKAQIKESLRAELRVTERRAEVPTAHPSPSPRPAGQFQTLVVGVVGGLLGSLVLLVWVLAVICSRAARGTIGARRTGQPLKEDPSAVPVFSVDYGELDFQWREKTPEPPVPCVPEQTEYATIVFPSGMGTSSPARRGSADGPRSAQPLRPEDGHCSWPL
Text: FIG. 2A-2J provides an overview of chemical proteomic mapping of fragment electrophile-cysteine interactions and reactivity changes in human T cells. […] This protocol was applied to both control and activated T cells. FIG. 2B are structures of scout fragments KB02 and KB05. FIG. 2C-FIG. 2D are pie chart representations of cysteines (C) and proteins (D) liganded with scout fragments. Results were obtained by combining soluble and particulate proteomic fraction data for KB02 and KB05 treatments (500 μM, 1 h) of both control and activated T cells. R-values within each experimental treatment group were derived from 3-5 independent isoTOP-ABPP experiments and 4 independent TMT-ABPP experiments (6 TMT channels). A cysteine was required to be quantified in at least two experiments for each compound treatment or proteomic fraction group to be reported. FIG. 2E are bar graphs showing the total number (left) and percentage (right) of liganded cysteines per total number of cysteines quantified across the indicated reactivity ranges, where cysteine reactivity was determined by isoTOP-ABPP experiments performed with different concentrations of the IA-alkyne probe (10 and 100 μM), as described previously (Weerapana et al., 2010). FIG. 2F are bar graphs showing the total number (left) and percentage (right) of liganded proteins with expression or reactivity changes in activated T cells. […]

primary human T cells [2] = experiment: Multidimensional screen for inhibition of T cell activation (IL-2, IFN-γ secretion, CD25, CD69 expression); assay type: cell-based; details: anti-CD3/anti-CD28-stimulated T cells
Description: FIG. 4A-4D is an overview of a multidimensional screen to identify elaborated electrophilic compounds that suppress T cell activation. FIG. 4A is a workflow for T-cell activation screen. Primary human T cells were treated with a focused library of elaborated electrophilic compounds (10 μM, structures of compounds in FIG. 12), a positive control immunosuppressive compound (DMF, 50 μM), or DMSO under TCR-stimulating conditions in 96-well plates pre-coated with 5 μg/mL αCD3 and 2 μg/mL αCD28 for 24 h. T cell activation was measured using a combination of markers, including IL2 and IFNγ secretion, as well as surface expression of CD25 and CD69. T cell viability was measured by flow cytometry using a Fixable Near-IR LIVE/DEAD™ Cell Stain. Compounds were considered as active hits if they reduced IL2 cytokine production by >65% with <15% reduction in T cell viability in the cytotoxicity assay compared to DMSO control. […]
The levels of secreted IL2, IFNγ and TNFα after incubating T cells in the presence of DMSO or electrophilic compounds under TCR-stimulating conditions were measured using DuoSet ELISA cytokine kits (R&D Systems) in clear microplates (R&D Systems) according to manufacturer's instructions and read using a CLARIOstar (BMG Labtech) plate reader (450 nm). All cytokine concentrations were calculated according to the standard curve generated for each experiment.

BIRC2 = BIRC2 (Homo sapiens, UniProt Q13490, C45A); experiment: Western blot of BIRC2 content in human T cells; details: EV-3 10 μM, AT-406 1 μM, 24 h; transfected primary human T cells
BIRC2, sequence (Q13490 whole entry C45A): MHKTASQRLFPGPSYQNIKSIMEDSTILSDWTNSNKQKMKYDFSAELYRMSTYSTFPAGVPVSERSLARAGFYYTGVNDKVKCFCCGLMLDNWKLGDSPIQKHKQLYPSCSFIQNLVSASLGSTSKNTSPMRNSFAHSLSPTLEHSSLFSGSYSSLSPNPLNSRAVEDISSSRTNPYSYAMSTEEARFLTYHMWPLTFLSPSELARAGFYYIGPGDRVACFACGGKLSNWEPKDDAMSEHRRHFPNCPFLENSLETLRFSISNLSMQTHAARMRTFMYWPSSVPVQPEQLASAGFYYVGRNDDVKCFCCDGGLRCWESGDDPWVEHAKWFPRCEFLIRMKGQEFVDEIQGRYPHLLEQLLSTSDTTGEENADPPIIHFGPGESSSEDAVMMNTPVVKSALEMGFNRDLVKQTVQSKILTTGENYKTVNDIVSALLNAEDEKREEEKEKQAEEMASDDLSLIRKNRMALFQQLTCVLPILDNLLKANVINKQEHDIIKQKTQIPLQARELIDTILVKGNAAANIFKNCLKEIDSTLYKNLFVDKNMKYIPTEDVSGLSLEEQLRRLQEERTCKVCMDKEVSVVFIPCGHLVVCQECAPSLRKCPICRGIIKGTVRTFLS
Description: All treatments were for 24 h.
All treatments were for 24 h. […] Plasmids expressing FLAG epitope-tagged versions of wild-type (WT) or the indicated cysteine-to-alanine mutants of BIRC2 (C45A) and BIRC3 (C28A) were co-transfected into primary human T cells with mCherry-expressing plasmid to control for transfection efficiency for 24 h. Cells were then treated with DMSO, EV-3 (10 μM), or AT-406 (1 μM) for 24 h and analyzed by anti-FLAG western blotting. […] (G) Quantitation of western blot data, where protein band intensity calculations were made using ImageJ software and represent the mean percentage of DMSO treated control±SEM; n=3 independent experiments per group. *p<0.05; **p<0.01 by two-tailed unpaired t test with Welch's correction compared to respective DMSO treatments.
Western blot analysis was performed on freshly isolated or expanded T cells. For Western blot protein degradation analysis, primary human T cells (2×10^7 cells/treatment) were re-suspended in RPMI media at 2×10^6 cells/mL and treated with the compounds or DMSO at 37° C. in a CO2 containing incubator for 24 h (or otherwise indicated times).

O=C(c1cccc(N2CCOCC2)c1)N1CCC(N(C(=O)CCl)c2ccccc2)C(Cc2ccccc2)C1 (stereo not drawn) [EV-93]
cytotoxicity (primary human T cells [1]): negligible cytotoxicity

C=CC(=O)N(c1ccccc1)c1ccc(Br)cc1 [KB05]
modification of MYD88 at either C274 or C280 (tryptic peptide 270-282) (MYD88): covalently modified

COc1ccc2c(c1)CCCN2C(=O)CCl [KB02]
modification of MYD88 at either C274 or C280 (tryptic peptide 270-282) (MYD88): covalently modified | sensitivity of C93 of PDCD1 (PDCD1): KB02-sensitivity

CCCCS(=N)(=O)CCC(N)C(=O)O (stereo not drawn) [BSO, buthionine sulphoximine]
effect on T cell activation (primary human T cells [2]): did not affect T cell activation

CN[C@@H](C)C(=O)N[C@H]1CN(C(=O)CC(C)C)CC[C@H]2CC[C@@H](C(=O)NC(c3ccccc3)c3ccccc3)N2C1=O [AT406]
FLAG-tagged BIRC2 C45A mutant content (BIRC2): still promotes the degradation
